Data taken from patent US20180030482A1 (Moralco B.V., priority 2014, published 2018).
“And” between values parts separate entries of the source, which are not always exact repeats. Identical values can stand only once.

Columns and labels:
[1] = kH=Ca/Pg, concentration in water over partial pressure in the gas phase; cited from earlier work
Ethanol Red strain = test: Batch fermentation testing acetaldehyde additions at high ethanol concentrations; type: cell-based; details: acetaldehyde added once ethanol had reached 80 g/l, controlled between 0.06 and 0.1 g/l; 180 minutes without acetaldehyde
Protocol: The stirring speed was set at 300 r.p.m. and the pH of the mineral salts medium containing 280 g/l glucose was kept at 5 by adding 2 M NaOH. The condenser at the outlet of the gas stream was connected to a cryostat and cooled at 2° C. The condensate was returned into the fermentation vessel. […] Sampling was from a loop kept at 35° C. for circulating gas from the headspace. […] The solution entered in the aqueous phase via a needle at the outlet of the tubing.
The mineral salts medium was employed with the addition of yeast extract at 1 g/l. The initial cell concentration was 0.5 g/l dry biomass. Air was supplied to the headspace of the fermenter at 15 ml/min during the first 2 hours of cultivation after which conditions were kept anoxic. Glucose was added initially at 230 g/l. […] The concentration was monitored from the headspace and controlled in the fermenter liquid between 0.06 and 0.1 g/l. In a control experiment, no acetaldehyde was supplied.

S. cerevisiae CEN.PK2-1C = test: Evolutionary engineering for enhanced tolerance to acetaldehyde (oxic batch cultivation); type: cell-based, Saccharomyces cerevisiae; details: batch system; compared to the parent strain in the absence of acetaldehyde
Protocol: The flasks contained 20 ml mineral salts medium supplied with glucose (12 g/l) and they were incubated on a rotary shaker at 400 r.p.m. Air could enter in the flasks via cotton plugs.
The organisms were cultivated under oxic conditions in a batch-wise mode. The initial pH of the mineral salts medium was set at 6 by titrating with KOH and glucose was added at 12 g/l. […] The newly acquired strains retained their ability to withstand higher acetaldehyde levels also when cultivating them anoxically in mineral salts medium with glucose and for prolonged periods of times. This subculturing was by taking an aliquot of 0.5 ml from a culture that had consumed all glucose and by transferring this inoculum to fresh medium (50 ml).

S. cerevisiae CBS 8066 [2] = test: Small-scale batch cultivation testing the effect of acetaldehyde on formation of ethanol and glycerol; type: cell-based, Saccharomyces cerevisiae; details: 1.76 mM acetaldehyde in, single addition at start; 280 mM glucose at start; 90 minutes of incubation
Protocol: (§1) The column was eluted at 60° C. with 0.5 g/l H2S04 at a flow rate of 0.6 ml min^−1 . Detection was by means of a Waters 2410 refractive-index detector and a Waters 2487 UV detector. Initial and final glycerol concentrations were further determined using an enzymatic determination kit (Rbiopharm AG, Darmstadt, Germany).
Carbon dioxide was allowed to escape from the bottles by inserting a needle in the septum of the cap. The bottles were incubated stationary. A sample per bottle was taken at the start of the experiment and after 90 minutes of incubation.
The initial cell concentration was 0.45 g/l dry biomass. Acetaldehyde was supplied to the bottle in a single addition at the start of the incubation. In a separate control run, no acetaldehyde was supplied.

S. cerevisiae CBS 8066 [3] = test: Anoxic chemostat fermentation under glucose limitation in absence or presence of acetaldehyde; type: cell-based, Saccharomyces cerevisiae; details: for Δ ethanol produced / Δ glycerol produced: relative to steady state 1 without acetaldehyde; for acetaldehyde concentration in chemostat sample / acetic acid concentration in chemostat sample / ethanol concentration in chemostat sample / glucose concentration in chemostat sample / glycerol concentration in chemostat sample / pyruvic acid concentration in chemostat sample / succinic acid concentration in chemostat sample: dilution rate 0.11 h^−1, duplicate samples A and B
Protocol: as §1
The mineral salts medium employed was based on standard media (Bruinenberg et al. 1983. Journal of General Microbiology 129:965-971; Verduin et al 1990. Journal of General Microbiology 136:395-403). It contained the following per liter of demineralized water: (NH4)2SO4, 5 g; KH2PO4, 3 g; MgSO4.7H2O, 0.5 g; EDTA, 15 mg; ZnSO4.7H20, 4.5 mg; CoCl2 6H2O, 0.3 mg; MnCl2 4H20, 1 mg; CuSO4 5H20, 0.3 mg; CaCl2. 2H20, 4.5 mg; FeSO4 7H20, 3 mg; Na2MoO4. 2H2O, 0.4 mg; H3BO3, 1 mg; KI, 0.1 mg; and 0.025 ml silicone antifoam (BDH). After heat sterilization at 120° C. and cooling, filter sterilized vitamins were added: biotin, 0.05 mg; calcium pantothenate, 1 mg; nicotinic acid, 1 mg; inositol, 25 mg; thiamin.HCl, 1 mg; pyridoxine.HCl, 1 mg; and para-aminobenzoic acid, 0.2 mg. Ergosterol and Tween 80 were dissolved in pure ethanol and steamed at 100° C. for 10 minutes before they were added to the medium to give final concentrations of 10 and 400 mg/l, respectively, and a final concentration of 38 mM ethanol. […] The sterilized glucose solution was added to the sterile mineral salts medium to give the required final concentration.
Anoxic chemostat cultivation of the yeasts was done at 30° C. in a fermenter with a working volume of 1 liter and at a stirring speed of 600 r.p.m. The pH was automatically controlled at pH=5 by titration with 2 M KOH. The condenser at the outlet of the gas stream was connected to a cryostat and cooled at 2° C. The condensate was returned into the fermentation vessel. The tubing on the entire fermenter set-up (including medium- and waste-reservoirs) consisted of material (Norprene tubing) that is very poorly permeable for oxygen. The fermenter and the medium reservoir (with a magnetic stirrer) were sparged with certificated ultra-pure nitrogen prior to the addition of acetaldehyde to the reservoir.
Strain S. cerevisiae CBS 8066 was cultivated in chemostat culture at a dilution rate of 0.11 h^−1. The glucose concentration in the medium reservoir was […] in each run. Three separate steady states were obtained in either the absence or presence of acetaldehyde. The effect of the aldehyde on the fermentation was tested by adding the compound to the medium reservoir after a steady state situation in its absence (medium and samples “1”) had been established. […] In each of the three steady states (after 3-5 volume changes), the fermentation medium in the fermenter was analyzed for various compounds as summarized in Tables 1 and 2.

Lactococcus lactis = details: cited from earlier work
[4] = test system: lactic acid bacteria, belonging to Lactobacillus, Pediococcus, Leuconostoc and Weissella; test: Semi-anoxic co-culture of yeast with lactic acid bacteria at increasing acetaldehyde concentrations; type: cell-based; details: increasing concentrations of acetaldehyde in subsequent batches; without acetaldehyde the bacteria remained present
Protocol: Media for plates (1.5% agar) for S. cerevisiae were the mineral salts medium supplement with 2% glucose and for lactic acid bacteria the de Man, Rogosa and Sharpe (MRS) medium. Cycloheximide (0.1 g/l) was added to the plates in case mixed cultures of yeast and lactic acid bacteria were studied.
Semi-anoxic batch cultivation of the yeasts together with lactic acid bacteria was done at 30° C. in 100-ml Erlenmeyer flasks. The flasks contained 50 ml mineral salts medium supplied with glucose (12 g/l) and they were incubated without shaking. Air could enter in the flasks via cotton plugs.
S. cerevisiae CEN.PK2-1C was subjected to evolutionary engineering analogous to the procedure described above, except that now semi-anoxic conditions were employed. Eight strains of lactic acid bacteria, belonging to Lactobacillus, Pediococcus, Leuconostoc and Weissella, were inoculated as well. The dynamics of the quantitative growth of the 9 organisms thus present as co-culture was followed during the procedure of evolutionary engineering. During each successive transfer step, the suspension after growth was plated on media that allow growth of either S. cerevisiae or of the 8 strains of lactic acid bacteria. […] Under this circumstance, the lactic acid bacteria remained present in the system.

[5] = Steady state 2 (6 mM acetaldehyde supplied)
[6] = Steady state 3 (15 mM acetaldehyde supplied)
[7] = steady state 2, 6 mM acetaldehyde supplied
[8] = steady state 3, 15 mM acetaldehyde supplied

For CCO [ethanol], the “Henry's law constant kH” value [1] is listed as “approximately 200 M/atm”.

In the case of CC=O [acetaldehyde], the “time required to reach 98 g/l of ethanol in the liquid” value (Ethanol Red strain) is reported as 158 min, the “acetaldehyde concentration in whose presence the evolved strain grew without a noticeable change in growth rate” value (S. cerevisiae CEN.PK2-1C) is reported as 0.5 g/L and the Acetaldehyde at end (S. cerevisiae CBS 8066 [2]) is reported as 1.01 mM. For the same compound, the Ethanol at end (S. cerevisiae CBS 8066 [2]) was 6.67 mM, the Glycerol at end (S. cerevisiae CBS 8066 [2]) was 0.58 mM and the “Henry's law constant kH” value [1] was 15 M/atm. It also gave an acetaldehyde consumed (S. cerevisiae CBS 8066 [3]; [5]) of -6 mM, a glucose consumed (S. cerevisiae CBS 8066 [3]; [5]) of 136 mM and a Δ ethanol produced (S. cerevisiae CBS 8066 [3]; [5]) of 15 mM. The Δ glycerol produced (S. cerevisiae CBS 8066 [3]; [5]) was -6 mM, the acetaldehyde consumed (S. cerevisiae CBS 8066 [3]; [6]) was -16 mM and the glucose consumed (S. cerevisiae CBS 8066 [3]; [6]) was 136 mM. The Δ ethanol produced (S. cerevisiae CBS 8066 [3]; [6]) was 27 mM, the Δ glycerol produced (S. cerevisiae CBS 8066 [3]; [6]) was -11 mM and the “acetaldehyde concentration in chemostat sample” value (S. cerevisiae CBS 8066 [3]; [7]) was 0.03 mM. The “acetic acid concentration in chemostat sample” value (S. cerevisiae CBS 8066 [3]; [7]) was 0.64 mM and 0.54 mM, the “ethanol concentration in chemostat sample” value (S. cerevisiae CBS 8066 [3]; [7]) was 243.13 mM and 244.74 mM and the “glucose concentration in chemostat sample” value (S. cerevisiae CBS 8066 [3]; [7]) was 0.48 mM and 0.46 mM. The “glycerol concentration in chemostat sample” value (S. cerevisiae CBS 8066 [3]; [7]) was 9.47 mM and 9.60 mM, the “pyruvic acid concentration in chemostat sample” value (S. cerevisiae CBS 8066 [3]; [7]) was 0.56 mM and 0.51 mM and the “succinic acid concentration in chemostat sample” value (S. cerevisiae CBS 8066 [3]; [7]) was 0.43 mM and 0.45 mM. The “acetaldehyde concentration in chemostat sample” value (S. cerevisiae CBS 8066 [3]; [8]) was 0.04 mM, the “acetic acid concentration in chemostat sample” value (S. cerevisiae CBS 8066 [3]; [8]) was 0.78 mM and 0.69 mM and the “ethanol concentration in chemostat sample” value (S. cerevisiae CBS 8066 [3]; [8]) was 255.35 mM and 255.25 mM. For the same compound, the “glucose concentration in chemostat sample” value (S. cerevisiae CBS 8066 [3]; [8]) was 0.44 mM and 0.48 mM, the “glycerol concentration in chemostat sample” value (S. cerevisiae CBS 8066 [3]; [8]) was 4.04 mM and 4.02 mM and the “pyruvic acid concentration in chemostat sample” value (S. cerevisiae CBS 8066 [3]; [8]) was 0.48 mM. For the same compound, the “succinic acid concentration in chemostat sample” value (S. cerevisiae CBS 8066 [3]; [8]) was 0.45 mM and 0.50 mM, the “concentration resulting in a reduction of the growth rate by 50%” value (Lactococcus lactis) was 0.4 kg/m^3 and the “minimum inhibitory concentration (MIC)” value (Lactococcus lactis) was 35 mM and 1.5 kg/m^3. The IC50 (Lactococcus lactis; read-out: concentration resulting in a reduction of the growth rate by 50%) was 9 mM and the “fate of the lactic acid bacteria in the co-culture” value [4] was “disappeared”.

In the case of O=O [oxygen], the “Henry's law constant kH” value [1] is given as 1.3*10^−3 M/atm.
